Tested on: Wnt activity (wnt-responsive SP5 promoter luciferase reporter in SW480 cells)
Test: Wnt activity reporter assay (SP5 promoter-firefly luciferase in SW480 cells)
Format: cell-based
Settings: Homo sapiens; SW480 colon cancer cells with SP5 promoter luciferase reporter; 24 h after compound addition; half-log dilutions, three micromolar top concentration; normalized to DMSO; read-out: Wnt inhibition
Excerpt: The above synthesized compounds were screened using the assay procedure for Wnt activity described below.
Reporter cell lines were generated by stably transducing cells of cancer cell lines (e.g., colon cancer) with a lentiviral construct that include a wnt-responsive promoter driving expression of the firefly luciferase gene.
Lentiviral constructs were made in which the SP5 promoter, a promoter having eight TCF/LEF binding sites derived from the SP5 promoter, was linked upstream of the firefly luciferase gene. The lentiviral constructs included a hygromycin resistance gene as a selectable marker. The SP5 promoter construct was used to transduce SW480 cells, a colon cancer cell line having a mutated APC gene that generates a truncated APC protein, leading to de-regulated accumulation of β-catenin.
Cultured SW480 cells bearing a reporter construct were distributed at approximately 10,000 cells per well into 384 well multiwell plates. Compounds were then added to the wells in half-log dilutions using a three micromolar top concentration. A series of control wells for each cell type received only buffer and compound solvent. Twenty-four hours after the addition of compound, reporter activity for luciferases was assayed, for example, by addition of the BrightGlo luminescence reagent (Promega) and the Victor3 plate reader (Perkin Elmer). Readings were normalized to DMSO only treated cells, and normalized activities were then used for the IC50 calculations.

Q: With `Cc1ccncc1-c1ccc2[nH]nc(-c3nc4c(-c5ccc(F)cc5)cccc4[nH]3)c2c1` [Compound 29, 3-(4-(4-Fluorophenyl)-1H-benzo[d]imidazol-2-yl)-5-(4-methylpyridin-3-yl)-1H-indazole] as the compound, how does the IC50 read?
A: The IC50 was 100 nM.

Q: For `CC(C)(C)C(=O)Nc1cncc(-c2ccc3[nH]nc(-c4nc5c(-c6ccc(F)cc6)cccc5[nH]4)c3c2)c1` [Compound 32, N-(5-(3-(4-(4-Fluorophenyl)-1H-benzo[d]imidazol-2-yl)-1H-indazol-5-yl)pyridin-3-yl)pivalamide], which IC50 is on record?
A: Its IC50 is 35 nM.

Q: With `CC(C)C(=O)Nc1cncc(-c2ccc3[nH]nc(-c4nc5c(-c6ccc(F)cc6)cccc5[nH]4)c3c2)c1` [Compound 33, N-(5-(3-(4-(4-Fluorophenyl)-1H-benzo[d]imidazol-2-yl)-1H-indazol-5-yl)pyridin-3-yl)isobutyramide] as the compound, how does the IC50 read?
A: Its IC50 is 34 nM.

Q: `O=C(Nc1cncc(-c2ccc3[nH]nc(-c4nc5c(-c6ccc(F)cc6)cccc5[nH]4)c3c2)c1)c1ccccc1` [Compound 35, N-(5-(3-(4-(4-Fluorophenyl)-1H-benzo[d]imidazol-2-yl)-1H-indazol-5-yl)pyridin-3-yl)benzamide] was tested. Which IC50 did it give?
A: Its IC50 is 161 nM.

Q: How did the IC50 turn out when `Fc1ccc(-c2cccc3[nH]c(-c4n[nH]c5ccc(-c6cncc(CN7CCCC7)c6)cc45)nc23)cc1` [Compound 38, 3-(4-(4-Fluorophenyl)-1H-benzo[d]imidazol-2-yl)-5-(5-(pyrrolidin-1-ylmethyl)pyridin-3-yl)-1H-indazole] was run?
A: The IC50 was 153 nM.

Q: With `CCCC(=O)Nc1cncc(-c2ccc3[nH]nc(-c4nc5c(-c6ccc(F)cc6)cccc5[nH]4)c3c2)c1` [Compound 41, N-(5-(3-(4-(4-Fluorophenyl)-1H-benzo[d]imidazol-2-yl)-1H-indazol-5-yl)pyridin-3-yl)butyramide] as the compound, how does the IC50 read?
A: The IC50 was 15 nM.

Q: For `CCCCC(=O)Nc1cncc(-c2ccc3[nH]nc(-c4nc5c(-c6ccc(F)cc6)cccc5[nH]4)c3c2)c1` [Compound 42, N-(5-(3-(4-(4-Fluorophenyl)-1H-benzo[d]imidazol-2-yl)-1H-indazol-5-yl)pyridin-3-yl)pentanamide], which IC50 is on record?
A: The IC50 was 33 nM.

Q: `O=C(Nc1cncc(-c2ccc3[nH]nc(-c4nc5c(-c6ccc(F)cc6)cccc5[nH]4)c3c2)c1)C1CC1` [Compound 43, N-(5-(3-(4-(4-Fluorophenyl)-1H-benzo[d]imidazol-2-yl)-1H-indazol-5-yl)pyridin-3-yl)cyclopropanecarboxamide] was tested. Which IC50 did it give?
A: The IC50 was 43 nM.

Q: Which IC50 does the source give for `O=C(Nc1cncc(-c2ccc3[nH]nc(-c4nc5c(-c6ccc(F)cc6)cccc5[nH]4)c3c2)c1)C1CCC1` [Compound 44, N-(5-(3-(4-(4-Fluorophenyl)-1H-benzo[d]imidazol-2-yl)-1H-indazol-5-yl)pyridin-3-yl)cyclobutanecarboxamide] here?
A: Its IC50 is 140 nM.

Q: For `O=C(Nc1cncc(-c2ccc3[nH]nc(-c4nc5c(-c6ccc(F)cc6)cccc5[nH]4)c3c2)c1)C1CCCC1` [Compound 45, N-(5-(3-(4-(4-Fluorophenyl)-1H-benzo[d]imidazol-2-yl)-1H-indazol-5-yl)pyridin-3-yl)cyclopentanecarboxamide], which IC50 is on record?
A: The IC50 was 110 nM.

Q: `O=C(Nc1cncc(-c2ccc3[nH]nc(-c4nc5c(-c6ccc(F)cc6)cccc5[nH]4)c3c2)c1)C1CCCCC1` [Compound 46, N-(5-(3-(4-(4-Fluorophenyl)-1H-benzo[d]imidazol-2-yl)-1H-indazol-5-yl)pyridin-3-yl)cyclohexanecarboxamide] was tested. Which IC50 did it give?
A: Its IC50 is 225 nM.

Q: `Fc1ccc(-c2cccc3[nH]c(-c4n[nH]c5ccc(-c6cncc(CNCc7ccccc7)c6)cc45)nc23)cc1` [Compound 47, N-benzyl-1-(5-(3-(4-(4-Fluorophenyl)-1H-benzo[d]imidazol-2-yl)-1H-indazol-5-yl)pyridin-3-yl)methanamine] was tested. Which IC50 did it give?
A: Its IC50 is 450 nM.

Q: `CCNCc1cncc(-c2ccc3[nH]nc(-c4nc5c(-c6ccccc6F)cccc5[nH]4)c3c2)c1` [Compound 54, N-((5-(3-(4-(2-Fluorophenyl)-1H-benzo[d]imidazol-2-yl)-1H-indazol-5-yl)pyridin-3-yl)methyl)ethanamine] was tested. Which IC50 did it give?
A: The IC50 was 46 nM.

Q: With `O=C(Nc1cncc(-c2ccc3[nH]nc(-c4nc5c(-c6ccccc6F)cccc5[nH]4)c3c2)c1)c1ccccc1` [Compound 59, N-(5-(3-(4-(2-Fluorophenyl)-1H-benzo[d]imidazol-2-yl)-1H-indazol-5-yl)pyridin-3-yl)benzamide] as the compound, how does the IC50 read?
A: The IC50 was 332 nM.

Q: With `Fc1ccccc1-c1cccc2[nH]c(-c3n[nH]c4ccc(-c5cncc(CN6CCCCC6)c5)cc34)nc12` [Compound 63, 3-(4-(2-Fluorophenyl)-1H-benzo[d]imidazol-2-yl)-5-(5-(piperidin-1-ylmethyl)pyridin-3-yl)-1H-indazole] as the compound, how does the IC50 read?
A: The IC50 was 10 nM.

Q: `CCCCC(=O)Nc1cncc(-c2ccc3[nH]nc(-c4nc5c(-c6ccccc6F)cccc5[nH]4)c3c2)c1` [Compound 66, N-(5-(3-(4-(2-Fluorophenyl)-1H-benzo[d]imidazol-2-yl)-1H-indazol-5-yl)pyridin-3-yl)pentanamide] was tested. Which IC50 did it give?
A: The IC50 was ≥ 4000 nM.

Q: Which IC50 does the source give for `O=C(Nc1cncc(-c2ccc3[nH]nc(-c4nc5c(-c6ccccc6F)cccc5[nH]4)c3c2)c1)C1CCCC1` [Compound 69, N-(5-(3-(4-(2-Fluorophenyl)-1H-benzo[d]imidazol-2-yl)-1H-indazol-5-yl)pyridin-3-yl)cyclopentanecarboxamide] here?
A: The IC50 was 23 nM.

Q: How did the IC50 turn out when `Fc1ccccc1-c1cccc2[nH]c(-c3n[nH]c4ccc(-c5cncc(CNCC6CCCC6)c5)cc34)nc12` [Compound 72, 1-Cyclopentyl-N-((5-(3-(4-(2-fluorophenyl)-1H-benzo[d]imidazol-2-yl)-1H-indazol-5-yl)pyridin-3-yl)methyl)methanamine] was run?
A: Its IC50 is 1140 nM.

Q: `Nc1cncc(-c2ccc3[nH]nc(-c4nc5c(-c6cccnc6)cccc5[nH]4)c3c2)c1` [Compound 75, 5-(3-(4-(Pyridin-3-yl)-1H-benzo[d]imidazol-2-yl)-1H-indazol-5-yl)pyridin-3-amine] was tested. Which IC50 did it give?
A: Its IC50 is 6 nM.

Q: How did the IC50 turn out when `Cc1ccncc1-c1ccc2[nH]nc(-c3nc4c(-c5cccnc5)cccc4[nH]3)c2c1` [Compound 77, 5-(4-Methylpyridin-3-yl)-3-(4-(pyridin-3-yl)-1H-benzo[d]imidazol-2-yl)-1H-indazole] was run?
A: The IC50 was 63 nM.

Q: `CN(C)c1cncc(-c2ccc3[nH]nc(-c4nc5c(-c6cccnc6)cccc5[nH]4)c3c2)c1` [Compound 79, N,N-Dimethyl-5-(3-(4-(pyridin-3-yl)-1H-benzo[d]imidazol-2-yl)-1H-indazol-5-yl)pyridin-3-amine] was tested. Which IC50 did it give?
A: Its IC50 is 45 nM.

Q: For `CC(C)Nc1cncc(-c2ccc3[nH]nc(-c4nc5c(-c6cccnc6)cccc5[nH]4)c3c2)c1` [Compound 84, N-Isopropyl-5-(3-(4-(pyridin-3-yl)-1H-benzo[d]imidazol-2-yl)-1H-indazol-5-yl)pyridin-3-amine], which IC50 is on record?
A: The IC50 was 13 nM.

Q: With `CC(C)(C)CC(=O)Nc1cncc(-c2ccc3[nH]nc(-c4nc5c(-c6cccnc6)cccc5[nH]4)c3c2)c1` [Compound 88, 3,3-Dimethyl-N-(5-(3-(4-(pyridin-3-yl)-1H-benzo[d]imidazol-2-yl)-1H-indazol-5-yl)pyridin-3-yl)butanamide] as the compound, how does the IC50 read?
A: The IC50 was 135 nM.

Q: `CCCC(=O)Nc1cncc(-c2ccc3[nH]nc(-c4nc5c(-c6cccnc6)cccc5[nH]4)c3c2)c1` [Compound 89, N-(5-(3-(4-(Pyridin-3-yl)-1H-benzo[d]imidazol-2-yl)-1H-indazol-5-yl)pyridin-3-yl)butyramide] was tested. Which IC50 did it give?
A: Its IC50 is 4 nM.

Q: Which IC50 does the source give for `CCCCC(=O)Nc1cncc(-c2ccc3[nH]nc(-c4nc5c(-c6cccnc6)cccc5[nH]4)c3c2)c1` [Compound 90, N-(5-(3-(4-(Pyridin-3-yl)-1H-benzo[d]imidazol-2-yl)-1H-indazol-5-yl)pyridin-3-yl)pentanamide] here?
A: Its IC50 is 11 nM.

Source: patent US10654832B2, “3-(benzoimidazol-2-YL)-indazole inhibitors of the Wnt signaling pathway and therapeutic uses thereof” (Samumed, LLC, priority 2013, dated 2020)
